Reference: patent EP3995521A1, “BLOCKED POLYISOCYANATE COMPOSITION, HYDROPHILIC POLYISOCYANATE COMPOSITION, RESIN COMPOSITION, RESIN FILM AND LAMINATED BODY” (Asahi Kasei Kabushiki Kaisha, priority 2019, dated 2021)

Assay: Surface tension of dispersing agent at 25°C by Wilhelmy method (Physical property 1-5)
Assay type: physicochemical
Conditions: aqueous solution of 0.1% by mass of the dispersing agent
Experimental: The surface tension may be determined by the following method, for example. An anionic dispersion agent is diluted with water to prepare an aqueous solution consisting of: 0.1% by mass of the anionic dispersion agent, relative to the total mass of the aqueous solution; and water. Then, the aqueous solution was used to measure the surface tension at 25°C by Wilhelmy method (which may be referred to as plate method or vertical plate method). Specifically, when a plate that is a measuring unit makes contact with the surface of the aqueous solution, the aqueous solution wets the plate upwards. At the time, the surface tension acts along the perimeter of the plate, and the force that pulls the plate into the aqueous solution generates. The pulling force F (force that acts on the plate, measuring force) is read, and the surface tension r is determined by the following formula. In the formula, L represents the perimeter (m) of the plate, and θ represents the contact angle of the plate and the aqueous solution. r = F/(L×cosθ) [formula]
The surface tension may be measured using a commercially available measurement device, such as static surface tension measurement system (manufactured by DKSH Japan, under the model number of TD 1C or TD 3).
Each dispersing agent used in the examples and comparative examples was diluted with water to prepare an aqueous solution of the dispersing agent consisting of: 0.1% by mass of the anionic dispersion agent, relative to the total mass of the aqueous solution; and water. Then, the resultant aqueous solution of the dispersing agent was used to measure the surface tension at 25°C by Wilhelmy method.

Compound	surface tension at 25°C [mN/m]	surface tension at 25°C (listed as compound (II-1)) [mN/m]
CCCCC(CC)COCCOCCOP(=O)([O-])O.[Na+] [Example D-4, Polyoxyalkylene alkylether phosphoric acid ester]	30.7	–
Ammonium polyoxyethylene alkylether sulfate [Example D-6]	38.8	30.7
